{"source": "patent US7374890B2", "about": "“Methods for identifying compounds that modulate ΔTRα2 activity” (University of Massachusetts, priority 2000, dated 2008)", "molecules": {"B1": {"name": "A myosin V middle: myosin V truncation mutant corresponding to amino acids 504-1307 (protein)", "chain": "GILDLLDEECKMPKGTDDTWAQKLYNTHLNKCALFEKPRMSNKAFIIKHFADKVEYQCEGFLEKNKDTVFEEQIKVLKSSKFKMLPELFQDDEKAISPTSATSSGRTPLTRVPVKPTKGRPGQTAKEHKKTVGHQFRNSLHLLMETLNATTPHYVRCIKPNDFKFPFTFDEKRAVQQLRACGVLETIRISAAGFPSRWTYQEFFSRYRVLMKQKDVLGDRKQTCKNVLEKLILDKDKYQFGKTKIFFRAGQVAYLEKLRADKLRAACIRIQKTIRGWLLRKRYLCMQRAAITVQRYVRGYQARCYAKFLRRTKAATTIQKYWRMYVVRRRYKIRRAATIVIQSYLRGYLTRNRYRKILREYKAVIIQKRVRGWLARTHYKRTMKAIVYLQCCFRRMMAKRELKKLKIEARSVERYKKLHIGMENKIMQLQRKVDEQNKDYKCLMEKLTNLEGVYNSETEKLRNDVERLQLSEEEAKVATGRVLSLQEEIAKLRKDLEQTRSEKKSIEERADKYKQETDQLVSNLKEENTLLKQEKETLNHRIVEQAKEMTETMERKLVEETKQLELDLNDERLRYQNLLNEFSRLEERYDDLKEEMTLMLNVPKPGHKRTDSTHSSNESEYTFSSEFAETEDIAPRTEEPIEKKVPLDMSLFLKLQKRVTELEQEKQLMQDELDRKEEQVFRSKAKEEERPQIRGAELEYESLKRQELESENKKLKNELNELRKALSEKSAPEVTAPGAPAYRVLMEQLTSVSEELDVRKEEVLILRSQLVSQKEAIQPKDDKNTMTDSTILLEDVQKMKDKGE"}, "B2": {"name": "myosin V tail lacking the last 44 residues (residues 953-1803): myosin V tail truncation mutant, residues 953-1803 (protein)", "chain": "LEGVYNSETEKLRNDVERLQLSEEEAKVATGRVLSLQEEIAKLRKDLEQTRSEKKSIEERADKYKQETDQLVSNLKEENTLLKQEKETLNHRIVEQAKEMTETMERKLVEETKQLELDLNDERLRYQNLLNEFSRLEERYDDLKEEMTLMLNVPKPGHKRTDSTHSSNESEYTFSSEFAETEDIAPRTEEPIEKKVPLDMSLFLKLQKRVTELEQEKQLMQDELDRKEEQVFRSKAKEEERPQIRGAELEYESLKRQELESENKKLKNELNELRKALSEKSAPEVTAPGAPAYRVLMEQLTSVSEELDVRKEEVLILRSQLVSQKEAIQPKDDKNTMTDSTILLEDVQKMKDKGEIAQAYIGLKETNRLLESQLQSQKRSHENEAEALRGEIQSLKEENNRQQQLLAQNLQLPPEARIEASLQHEITRLTNENLYFEELYADDPKKYQSYRISLYKRMIDLMEQLEKQDKTVRKLKKQLKVFAKKIGELEVGQMENISPGQIIDEPIRPVNIPRKEKDFQGMLEYKREDEQKLVKNLILELKPRGVAVNLIPGLPAYILFMCVRHADYLNDDQKVRSLLTSTINSIKKVLKKRGDDFETVSFWLSNTCRFLHCLKQYSGEEGFMKHNTSRQNEHCLTNFDLAEYRQVLSDLAIQIYQQLVRVLENILQPMIVSGMLEHETIQGVSGVKPTGLRKRTSSIADEGTYTLDSILRQLNSFHSVMCQHGMDPELIKQVVKQMFYIVGAITLNNLLLRKDMCSWSKGMQIRYNVSQLEEWLRDKNLMNSGAKETLEPLIQAAQLLQVKKKTDDDAEAICSMCNALTTAQIVKVLNLYTPVNEFEERVSVSFIRTIQ"}}, "key": {"[1]": {"tested_on": "cerebellar granule neurons", "experiment": "release of FM1-43-loaded synaptic vesicles from cerebellar granule neurons under continuous stimulus", "assay_type": "cell-based, rat", "experimental": "Granule neurons were grown for 7 days and rendered hormone free by growth in serum-free medium as detailed above. Coverslips were then placed in a perfusion chamber, mounted on the stage of a laser scanning confocal microscope and perfused at 1 ml/min at 25° C. with perfusion buffer (119 mM NaCl, 2.5 mM KCl, 2 mM CaCl2, 2 mM MgCl2, 25 mM HEPES (pH 7.4), 30 mM glucose, and […] AP-5). The effects of different hormones on synaptic vesicle trafficking were then determined. […] Depolarizing KCl was then removed from the perfusion buffer and the cells were exposed to FM1-43 for an additional 30 seconds to insure complete loading of recycling synaptic vesicles. Loaded cells were then washed free of dye and the cells were perfused for ten minutes at rest.\nImages of a single field of neuronal fibers were then taken immediately before adding a second depolarizing solution (perfusion buffer containing 50 mM KCl) and at one and two minutes after beginning the continuous stimulation by 50 mM KCl. Thirty to forty-five individual FM1-43 labeled nerve terminals were identified in the baseline images (taken prior to depolarization) and the change in fluorescence (DF) for each nerve terminal determined at the one and two minute time points. FIGS. 11A and 11B show the results of analysis of the hormone specificity of synaptic vesicle trafficking (FIG. 11A) and the influence of individual myo5a mutants (FIG. 11B) on synaptic vesicle transport in granule neurons.\nTo evaluate the role of myo5a in synaptic vesicle transport, three different myo5a constructs were introduced into the neurons by replication-deficient adenoviral vectors (Δmyo5a^tail(MyoV^tail), Δmyo5a^c-term(MyoV^1830)and ΔMyo5a^CC(MyoV^cc) see FIG. 5) as described above. […] Neurons were infected with purified Ad5-constructs (MOI=10) 48 hours prior to the synaptic vesicle trafficking study, and allowed to recover in hormone (T4) supplemented medium. […] This modest influence of the VBD mutant on synaptic vesicle retention is likely to be due to the loss of the kinesin-binding domain that limits its delivery to nerve terminals."}, "[2]": {"tested_on": "binding of p29^GFP vesicles to F-actin", "experiment": "modified in vitro actin binding assay with p29^GFP-labeled vesicles", "assay_type": "biochemical, rat", "settings": "for competition with native myosin V for T4-dependent binding of p29 to F-actin: ~2-3 pmol polypeptide/50 μl mixture, 10 nM T4", "experimental": "To define the specific region(s) of the myosin V tail that interact with the p29 vesicle, a series of deletion mutations were created based on the dominant negative effect of exogenous myosin V tail on p29 vesicle binding. Competition analysis of the myosin V deletion mutations on T4-dependent binding of p29 vesicles to F-actin was performed using a modified in vitro assay in which a GFP-tagged p29 fusion protein (p29^GFP) replaced the radioaffinity labeled native p29 (Farwell et al., 1990, J. Biol. Chem. 265:18546-18553; Farwell et al., 1993, J. Biol. Chem. 268:5055-5062). This allowed direct evaluation of the binding of fluorescent vesicles to F-actin without affinity radiolabeling of the p29 and subsequent SDS-PAGE analysis.\nSpecific fluorescence at 510 nm (excitation, 488 nm) was then determined in the resuspended Triton-insoluble pellets.\nTo determine if the myosin V tail could be captured by the p29^GFP vesicle, an exogenous myosin V^tail was introduced into astrocytes constitutively expressing p29^GFP by infection with Ad5-ΔMyo V^tail virus particles and examined the effects of T4 on the binding of the myosin V^tail to immunopurified p29^GFP vesicles. Astrocytes expressing p29^GFP were grown in serum-free media and treated for 16 hours with 1 mM bt2cAMP and 100 nM hydrocortisone. A separate pool of astrocytes was treated in serum-free media supplemented with 10 μM retinoic acid. Cells were collected by scraping, and lysed by two freeze-thaw cycles. […] Triton-soluble (vesicle) and Triton-insoluble (F-actin) fractions were separated by microflige centrifugation. Triton pellets were resuspended in 300 μl of PBS and fluorescence at 510 nm (excitation 488 nm) determined and relative fluorescence was reported as arbitrary units. Cells were treated with 10 nM T4 for twenty minutes and a Triton-soluble supernatant was prepared. Vesicles containing the p29^GFP were immunoprecipitated by anti-GFP IgG (2 μg/ml) and protein in the immunoprecipitates were resolved by SDS-PAGE. Immunoblot analysis of vesicle-associated myosin V was performed using the anti-myosin V antibody directed against the C-terminus.\nThe quantity of each mutant protein synthesized was determined by [^35 S]-methionine incorporation. Astrocytes expressing p29^GFP were grown in serum-free media and treated for 16 hours with […] bt2cAMP and 100 nM hydrocortisone. p29^GFP V-lysate and F-lysate were prepared as described herein. 100 μg aliquots of p29^GFP V-lysate and F-lysate were pre-incubated, in triplicate, for 20 minutes at 37° C. in the presence of individual Δ myosin V mutant proteins (˜2-3 pmol polypeptide/50 μl mixture) were added to the actin-binding assay and pre-incubated for 20 minutes at 37° C. T4 (10 nM) was then added, the mixtures incubated for 20 minutes at 37° C., and F-actin bound, fluorescent p29^GFP vesicles were then isolated in the Triton-insoluble pellet.\nV lysates prepared from astrocytes over-expressing p29^GFP were pre-incubated for 30 minutes at room temperature with antisera raised against ΔTRα2, ΔTRα1, the C-terminus of MyoV (encoded by MyoV^tail, FIG. 5), the coiled-coil region of MyoV (encoded by MyoV^coil-coil, FIG. 5) and GFP (green fluorescent protein). T4 (10 nM) and actin fiber-containing F-lysate was then added, the mixtures incubated at 37° C. for 20 minutes, and the Triton-insoluble fraction isolated by centrifugation."}, "[3]": {"tested_on": "cerebellar granule neurons", "experiment": "FM1-43 synaptic vesicle recycling in cultured cerebellar granule neurons, spontaneous activity", "assay_type": "cell-based, rat", "experimental": "All of the major components of hormone-induced vesicle trafficking in astrocytes (actin fibers, myosin V (also referred to as myosin 5a and myo 5a), and recycling vesicles) are also present in nerve terminals. Therefore, the effects of thyroid hormone on synaptic vesicle recycling in the presynaptic nerve terminal were examined using myo5a-dependent synaptic vesicle (SV) recycling in cultured cerebellar granule neurons. In these experiments, rat granule neurons were grown on laminin-coated coverslips in the absence or presence of hormone and synaptic vesicle recycling was examined using FM1-43 (a styryl dye used in the art for studying endocytosis and exocytosis, e.g., in synaptic vesicle uptake and release assays; Molecular Probes, Inc. Eugene, Oreg.). […] In contrast, granule neurons grown in thyroid hormone supplemented medium released only 15-20% of the FM1-43 after six minutes of incubation and the hormone specificity of retention of FM1-43 in the “reserve pool” was identical to that determined for myo5a-dependent, endocytosis of p29 vesicles (D2p29 vesicles) in astrocytes.\nCerebellar granule neurons were examined because thyroid hormone has a profound influence on granule neuron viability during cerebellar maturation (Xiao and Nikodem, 1998, Front. Biosci. 3: A52-57; Rabie et al., 1980, Brain Res. 190:409-414), and because of the effects of the loss of myo5a on synaptic vesicle homeostasis (Bridgman, 1999, J. Cell Biol. 146:1045-1060). […]\nExperiments were conducted to determine whether synaptic vesicle endocytosis could be altered by the hormone status of the neuron. […] The dye was then removed and the number, intensity and retention of the FM1-43 in random nerve terminals immediately after washing and after six minutes of autonomous activity were analyzed in paraformaldehyde fixed cells (Ryan, 1999, J. Neurosci.: 19:1317-1323). Fluorescence in single nerve terminals (ROI=7×7 pixels) and in an adjacent segment of the neuronal fiber were measured for 40-45 individual nerve terminals. […] Fluorescence intensity was determined using NIH Image software. The total FM1-43 fluorescence in a nerve terminal represents the sum of the dye-loaded synaptic vesicles in the readily releasable and the reserve pools.\nBy allowing recurrent activity, the FM1-43 filled synaptic vesicles present in the readily releasable pool will be progressively depleted. […] By measuring the total FM1-43 content in random nerve terminals immediately after loading and at 30 second intervals for six minutes of spontaneous activity, the influence of hormones on the distribution of recycling synaptic vesicles between the readily releasable and reserve pools was estimated."}}}
{"molecule": "Δ myosin ^1830: myosin V tail deletion mutant, residues 1830-1852; vesicle-binding domain (NPSSLALETIQIPASLGLGFIAR)", "values": [{"measurement": "increase of the t1/2 of FM1-43 retention", "setting": "[1]; expression from Ad5 construct (MOI=10), T4 supplemented medium", "result": 50, "unit": "%"}]}
{"molecule": "N[C@@H](Cc1cc(I)c(Oc2ccc(O)c(I)c2)c(I)c1)C(=O)O", "note": "[T3, 3,5, 3′-triiodothyronine]", "values": [{"measurement": "p29^GFP vesicle binding to F-actin, dose-response", "setting": "[2]; 0-100 nM, below the highest concentration", "result": "did not increase"}, {"measurement": "increase in p29^GFP vesicle binding to F-actin", "setting": "[2]; 100 nM, highest concentration of hormone used", "result": "10-20%"}, {"measurement": "endocytosed FM1-43 released", "setting": "[3]; after three minutes of spontaneous activity", "result": "> 80", "unit": "%"}, {"measurement": "uptake of FM1-43", "setting": "[3]; immediately after loading", "result": "No differences"}, {"measurement": "retention of recycling synaptic vesicles", "setting": "[1]; 10 nM hormone, continuous stimulation by 50 mM KCl", "result": "no effect"}]}
{"molecule": "B1", "values": [{"measurement": "competition with native myosin V for T4-dependent binding of p29 to F-actin", "setting": "[2]", "result": "did not compete"}]}
{"molecule": "B2", "values": [{"measurement": "competition with native myosin V for T4-dependent binding of p29 to F-actin", "setting": "[2]", "result": "did not compete"}]}
